The text below walks through data of patent publication US12516038B2, “Inhibitors of antigen presentation by HLA-DR” (Janssen Pharmaceutica NV, priority 2020, dated 2026).

The structures appear in SMILES notation.

The target of one assay is HLA-DRB1*0401 (Homo sapiens (Human), UniProt P01903+P01911, A100K/A169T/DEL228-266/F76Y/I96L/K127E/L162R/M171V/N62H/P40V/Q125Y/R42H/S133A/S149N/S66Y/V115G/V209L/W38E). As to the kind of experiment: HLA-DR4 HTRF assay. It is filed as binding. The note with it: inhibition of loading of Alexa Fluor 647-labeled Cit-CII peptide onto HLA-DR4 (CLIP cleaved). The procedure, abridged: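 HLA-DRB1*04:01 construct (α/β fused to human Fc, CLIP pre-cleaved by HRV3C overnight at 4° C) at 3 nM was preincubated 45 min with compound and 1 nM anti-Fc-Tb donor, then 40 nM Alexa647-Cit-CII1236-1249 peptide added. After 90 min at 37° C, the 665/620 nm HTRF ratio gave % inhibition; IC50 by nonlinear regression.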

In assay [1] the test system is human peripheral blood CD4+ helper T cells. The experiment in a line: Pan-CD4+ T cell activation (off-target assay). It is filed as cell-based. Particulars: Homo sapiens, T-cell, 24 h, anti-CD3/anti-CD28 stimulation, IL-2 production by ELISA. A digest of the protocol:
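IL-2 secretion was measured by ELISA of culture supernatant after 24 h of TCR stimulation. Stimulation used anti-CD3 coated at 1 μg/mL and 1 μg/mL soluble anti-CD28 on human blood CD4+ helper T cells without HLA-DR-expressing APCs, with compound or vehicle present.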
On the technique in general: ELISA stands for enzyme-linked immunosorbent assay.

Assay [2] deals with HLA-DR4 restricted mouse T cell hybridoma line (DR4.CII.36.8) with HLA-DRB1*04:01-expressing Boleth cells. The experiment in a line: HLA-DR4-restricted peptide-specific T cell-based assay (hybridoma assay). The note with it: Mus musculus, T-cell, 6 h, inhibition of IL-2 production, CII259-273 peptide presented by Boleth cells. The procedure, abridged: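 IC50 values derive from 4-parameter logistic fits of IL-2 AlphaLISA signal over 8-point duplicate titrations. Compound and HLA-DRB1*04:01 Boleth APCs were preincubated 1 h, 37° C., before adding CII259-273-restricted DR4.CII.36.8 hybridoma cells with peptide for 6 h at 37° C., in DMEM/1% FCS.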

For `Cc1c(O[C@@H](c2ccc(C(N)=O)cc2)c2ccc(C(=O)O)cc2)ccc2c1OCCC2=O` (single isomer, unassigned) [Example 71b, (*S)-4-((4-carbamoylphenyl)((8-methyl-4-oxochroman-7-yl)oxy)methyl)benzoic acid], the IC50 against HLA-DRB1*0401 was 930 nM; in assay [1], above 15000 nM; in assay [2], 200 nM.
The like results for `CN(C)C(=O)c1ccc([C@@H](Oc2ccc3c(c2)OCCC3=O)c2ccncc2)cc1` (single isomer, unassigned) [Example 72a, (*R)—N,N-dimethyl-4-(((4-oxochroman-7-yl)oxy)(pyridin-4-yl)methyl)benzamide] were, in that order, 840 nM, 9900 nM and 6300 nM.
The like results for `CN(C)C(=O)c1ccc([C@H](Oc2ccc3c(c2)OCCC3=O)c2ccncc2)cc1` (single isomer, unassigned) [Example 72b, (*S)—N,N-dimethyl-4-(((4-oxochroman-7-yl)oxy)(pyridin-4-yl)methyl)benzamide] were, in that order, 690 nM, above 15000 nM and 11000 nM.
With `CCc1c(O[C@@H](c2ccncc2)c2ccc(C(N)=O)cc2)ccc2c1OCCC2=O` (single isomer, unassigned) [Example 73a, (*R)-4-(((8-ethyl-4-oxochroman-7-yl)oxy)(pyridin-4-yl)methyl)benzamide], the IC50 against HLA-DRB1*0401 worked out at 540 nM; in assay [1] it was 8000 nM; in assay [2] it was 110 nM.
The like results for `CCc1c(O[C@H](c2ccncc2)c2ccc(C(N)=O)cc2)ccc2c1OCCC2=O` (single isomer, unassigned) [Example 73b, (*S)-4-(((8-ethyl-4-oxochroman-7-yl)oxy)(pyridin-4-yl)methyl)benzamide] were, in that order, 600 nM, 15000 nM and 710 nM.
The like results for `CCc1cc2c(cc1O[C@@H](c1ccncc1)c1ccc(C(N)=O)cc1)OCCC2=O` (single isomer, unassigned) [Example 74a, (*R)-4-(((6-ethyl-4-oxochroman-7-yl)oxy)(pyridin-4-yl)methyl)benzamide] were, in that order, 550 nM, 2200 nM and 120 nM.
Regarding `CCc1cc2c(cc1O[C@H](c1ccncc1)c1ccc(C(N)=O)cc1)OCCC2=O` (single isomer, unassigned) [Example 74b, (*S)-4-(((6-ethyl-4-oxochroman-7-yl)oxy)(pyridin-4-yl)methyl)benzamide], the results for the IC50 (at HLA-DRB1*0401; in assay [1]; in assay [2]) were 920 nM, 15000 nM and 1900 nM, respectively.
The like results for `CC(C)c1c(O[C@@H](c2ccncc2)c2ccc(C(N)=O)cc2)ccc2c1OCCC2=O` (single isomer, unassigned) [Example 75a, (*R)-4-(((8-isopropyl-4-oxochroman-7-yl)oxy)(pyridin-4-yl)methyl)benzamide] were, in that order, 600 nM, 4700 nM and 62 nM.
The like results for `CC(C)c1c(O[C@H](c2ccncc2)c2ccc(C(N)=O)cc2)ccc2c1OCCC2=O` (single isomer, unassigned) [Example 75b, (*S)-4-(((8-isopropyl-4-oxochroman-7-yl)oxy)(pyridin-4-yl)methyl)benzamide] were, in that order, 630 nM, 9300 nM and 180 nM.
Consider `CC(C)c1cc2c(cc1O[C@@H](c1ccncc1)c1ccc(C(N)=O)cc1)OCCC2=O` (single isomer, unassigned) [Example 76a, (*R)-4-(((6-isopropyl-4-oxochroman-7-yl)oxy)(pyridin-4-yl)methyl)benzamide], for which the IC50 was 650 nM on HLA-DRB1*0401, 2200 nM in assay [1] and 320 nM in assay [2].
Turning to `CC(C)c1cc2c(cc1O[C@H](c1ccncc1)c1ccc(C(N)=O)cc1)OCCC2=O` (single isomer, unassigned) [Example 76b, (*S)-4-(((6-isopropyl-4-oxochroman-7-yl)oxy)(pyridin-4-yl)methyl)benzamide], the values for the concentration for half-maximal inhibition (IC50) (against HLA-DRB1*0401; in assay [1]; in assay [2]) were 1000 nM, 15000 nM and 3100 nM, respectively.
In the case of `COc1cc(O[C@@H](c2ccncc2)c2ccc(C(N)=O)cc2)cc2c1C(=O)CCO2` (single isomer, unassigned) [Example 77a, (*R)-4-(((5-methoxy-4-oxochroman-7-yl)oxy)(pyridin-4-yl)methyl)benzamide], the IC50 was 1700 nM on HLA-DRB1*0401, above 15000 nM in assay [1] and 9100 nM in assay [2].
Taken in the same sequence, the figures for `COc1cc(O[C@H](c2ccncc2)c2ccc(C(N)=O)cc2)cc2c1C(=O)CCO2` (single isomer, unassigned) [Example 77b, (*S)-4-(((5-methoxy-4-oxochroman-7-yl)oxy)(pyridin-4-yl)methyl)benzamide] were 1500 nM, 9900 nM and 5500 nM.
Consider `N#Cc1c(O[C@@H](c2ccncc2)c2ccc(C(N)=O)cc2)ccc2c1OCCC2=O` (single isomer, unassigned) [Example 78a, (*R)-4-(((8-cyano-4-oxochroman-7-yl)oxy)(pyridin-4-yl)methyl)benzamide], for which the values for the IC50 (against HLA-DRB1*0401; in assay [1]; in assay [2]) were 470 nM, 9900 nM and 2300 nM, respectively.
Taken in the same sequence, the figures for `N#Cc1c(O[C@H](c2ccncc2)c2ccc(C(N)=O)cc2)ccc2c1OCCC2=O` (single isomer, unassigned) [Example 78b, (*S)-4-(((8-cyano-4-oxochroman-7-yl)oxy)(pyridin-4-yl)methyl)benzamide] were 450 nM, 15000 nM and 470 nM.
The like results for `NC(=O)c1ccc([C@@H](Oc2ccc3c(c2-c2ccc(-c4ccccc4)cc2)OCCC3=O)c2ccncc2)cc1` (single isomer, unassigned) [Example 79a, (*R)-4-(((8-([1,1′-biphenyl]-4-yl)-4-oxochroman-7-yl)oxy)(pyridin-4-yl)methyl)benzamide] were, in that order, 28000 nM, 3100 nM and 470 nM.
Consider `NC(=O)c1ccc([C@H](Oc2ccc3c(c2-c2ccc(-c4ccccc4)cc2)OCCC3=O)c2ccncc2)cc1` (single isomer, unassigned) [Example 79b, (*S)-4-(((8-([1,1′-biphenyl]-4-yl)-4-oxochroman-7-yl)oxy)(pyridin-4-yl)methyl)benzamide], for which the 50% inhibitory concentration (IC50) is 49000 nM against HLA-DRB1*0401, above 15000 nM in assay [1] and 970 nM in assay [2].
Taken in the same sequence, the figures for `CCCc1c(O[C@@H](c2ccncc2)c2ccc(C(N)=O)cc2)ccc2c1OCCC2=O` (single isomer, unassigned) [Example 80a, (*R)-4-(((4-Oxo-8-propylchroman-7-yl)oxy)(pyridin-4-yl)methyl)benzamide] were 660 nM, 5900 nM and 32 nM.
On to `Cc1c(O[C@H](c2ccncc2)c2cccc(CNC(N)=O)c2)ccc2c1OCCC2=O` (single isomer, unassigned) [Example 81b, (*S)-1-(3-(((8-methyl-4-oxochroman-7-yl)oxy)(pyridin-4-yl)methyl)benzyl)urea], for which the IC50 is 610 nM against HLA-DRB1*0401, above 15000 nM in assay [1] and 1300 nM in assay [2].
As for `CCOc1cc(C(N)=O)ccc1[C@H](Oc1ccc2c(c1C)OCCC2=O)c1ccncc1` (single isomer, unassigned) [Example 83a, (*R)-3-ethoxy-4-(((8-methyl-4-oxochroman-7-yl)oxy)(pyridin-4-yl)methyl)benzamide], the results for the IC50 (on HLA-DRB1*0401; in assay [1]; in assay [2]) were 950 nM, 990 nM and 2700 nM, respectively.
Taken in the same sequence, the figures for `Cc1c(O[C@H](c2ccncc2)c2ccc(C(N)=O)cc2OC(C)C)ccc2c1OCCC2=O` (single isomer, unassigned) [Example 84a, (*R)-3-isopropoxy-4-(((8-methyl-4-oxochroman-7-yl)oxy)(pyridin-4-yl)methyl)benzamide] were 1200 nM, 470 nM and 790 nM.
Taken in the same sequence, the figures for `Cc1c(O[C@@H](c2ccncc2)c2ccc(C(N)=O)cc2OC(C)C)ccc2c1OCCC2=O` (single isomer, unassigned) [Example 84b, (*S)-3-isopropoxy-4-(((8-methyl-4-oxochroman-7-yl)oxy)(pyridin-4-yl)methyl)benzamide] were below 1000 nM, 1700 nM and 6500 nM.
`Cc1c(O[C@H](c2ccncc2)c2ccc(C(N)=O)cc2OCC(C)C)ccc2c1OCCC2=O` (single isomer, unassigned) [Example 85a, (*R)-3-isobutoxy-4-(((8-methyl-4-oxochroman-7-yl)oxy)(pyridin-4-yl)methyl)benzamide]: the IC50 against HLA-DRB1*0401 was 810 nM; in assay [1] it was 3700 nM; in assay [2], 240 nM.

As usually defined, the IC50 is the concentration needed to halve the response being measured.
